Measurements from US20250313533A1, “QUINOLINE CARBOXYLIC ACID ESTER COMPOUND AND PREPARATION METHOD AND USE THEREOF” (priority 2019, published 2025).

Key:
[1] = test system: pathogenic bacteria causing fruit blotch in watermelons; test: In vitro bactericidal activity, fruit blotch in watermelons; format: cell-based, acidovorax; settings: read-out: inhibitory rate; for inhibition at 1 ppm: dosage 1 ppm; for inhibition at 5 ppm: dosage 5 ppm
Protocol: (§1) Under aseptic conditions, equal amounts of NB culture medium were added to test tubes, and fixed amounts of the sample solutions were pipetted into the above test tubes in an ascending order of concentrations, respectively. The mixtures were well mixed and added with equal amounts of a bacterial suspension in log phase.
(§2) Each step of the procedure was repeated 4 times. After mixing, the mixture samples were incubated in the dark in a shaking incubator at 25° C. The OD values were measured when the bacteria were in log phase.

[2] = test system: pathogenic bacteria causing black shank in potatoes; test: In vitro bactericidal activity, black shank in potatoes; format: cell-based; settings: read-out: inhibitory rate; for inhibition at 1 ppm: dosage 1 ppm; for inhibition at 5 ppm: dosage 5 ppm
Protocol: as §1, §2

[3] = test system: pathogenic bacteria causing bacterial angular leaf spot in cucumbers; test: In vitro bactericidal activity, bacterial angular leaf spot in cucumbers; format: cell-based, pseudomonas; settings: read-out: inhibitory rate; for inhibition at 1 ppm: dosage 1 ppm; for inhibition at 5 ppm: dosage 5 ppm
Protocol: as §1, §2

[4] = test system: black shank in potatoes; test: Living crops in vivo protective activity, potatoes (root irrigation); settings: Solanum tuberosum, read-out: efficacy against black shank in potatoes; for pest or weed control at 5 ppm: dosage 5 ppm; for pest or weed control at 10 ppm: dosage 10 ppm
Protocol: Root irrigation was carried out on the potatoes for tests according to the designed concentration of the agents. The dosage for each plant was 200 mL and was kept consistent (also for the control). The black shank bacteria were inoculated on the second day after the application. The results were investigated according to the disease condition.

[5] = test system: cucumber seedlings; test: Safety for plant growth after application; format: in vivo; settings: dosage 200 ppm
Excerpt: Taking indoor potted cucumber seedlings as an example, the influence of the compound disclosed herein on growth rate of plant height, chlorophyll content, leaf area, etc. of crops was mainly evaluated.
The results of safety and health-care effect of the compounds of the present disclosure on cucumber seedlings are shown in the following table 1: […]

[6] = test system: pathogenic bacteria causing bacterial wilt in tobacco; test: whole plant or invertebrate; format: cell-based, ralstonia; settings: read-out: inhibitory rate
[7] = test system: pathogenic bacteria causing stem rot in sweet potatoes; test: In vitro bactericidal activity, stem rot in sweet potatoes; format: cell-based, dikia; settings: read-out: inhibitory rate; for inhibition at 1 ppm: dosage 1 ppm; for inhibition at 5 ppm: dosage 5 ppm
Protocol: as §1, §2

[8] = test system: fruit blotch in watermelons; test: whole plant or invertebrate; settings: read-out: efficacy against fruit blotch in watermelons
[9] = test system: pathogenic bacteria causing fire blight in pears; test: In vitro bactericidal activity, fire blight in pears; format: cell-based, erwinia; settings: Erwinia, read-out: inhibitory rate; for inhibition at 1 ppm: dosage 1 ppm; for inhibition at 5 ppm: dosage 5 ppm
Protocol: as §1, §2

[10] = test system: pathogenic bacteria causing black rot in Chinese cabbages; test: In vitro bactericidal activity, black rot in Chinese cabbages; format: cell-based, xanthomonas; settings: Xanthomonas, read-out: inhibitory rate; for inhibition at 1 ppm: dosage 1 ppm; for inhibition at 5 ppm: dosage 5 ppm
Protocol: as §1, §2

[11] = test system: pathogenic bacteria causing bacterial blight in rice; test: whole plant or invertebrate; format: cell-based, xanthomonas; settings: read-out: inhibitory rate
[12] = test system: stem rot in sweet potatoes; test: whole plant or invertebrate; settings: read-out: efficacy against stem rot in sweet potatoes
[13] = test system: bacterial wilt in tobacco; test: whole plant or invertebrate; settings: Nicotiana tabacum, read-out: efficacy against bacterial wilt in tobacco
[14] = test system: bacterial blight in rice; test: whole plant or invertebrate; settings: Oryza sativa, read-out: efficacy against bacterial blight in rice
[15] = test system: pathogenic bacteria causing bacterial wilt in cassava; test: organism not typed; format: cell-based; settings: read-out: inhibitory rate
[16] = test system: soft rot in Chinese cabbages; test: whole plant or invertebrate; settings: 48 h, read-out: efficacy against soft rot in Chinese cabbages

COCCOC(=O)c1cn(C2CC2)c2cc(OC)ccc2c1=O [Compound 353]
≥ 90%: inhibition at 5 ppm [1] | inhibition at 5 ppm [2] | inhibition at 5 ppm [3] | pest or weed control at 10 ppm [4] | inhibition at 5 ppm [6] | inhibition at 5 ppm [7] | pest or weed control at 5 ppm [8] | pest or weed control at 10 ppm [8] | inhibition at 5 ppm [9] | inhibition at 5 ppm [10] | inhibition at 5 ppm [11] | pest or weed control at 5 ppm [12] | pest or weed control at 10 ppm [12] | pest or weed control at 5 ppm [13] | pest or weed control at 10 ppm [13] | pest or weed control at 10 ppm [14] | inhibition at 5 ppm [15] | pest or weed control at 10 ppm [16]
safe for plant growth: safety for plant growth (discoloration, necrosis, wilt, malformation) [5]
≥ 80%: inhibition at 1 ppm [1] | inhibition at 1 ppm [2] | inhibition at 1 ppm [3] | pest or weed control at 5 ppm [4] | inhibition at 1 ppm [6] | inhibition at 1 ppm [7] | inhibition at 1 ppm [9] | inhibition at 1 ppm [10] | inhibition at 1 ppm [11] | pest or weed control at 5 ppm [14] | inhibition at 1 ppm [15] | pest or weed control at 5 ppm [16]

O=C(OCCO)c1cn(C2CC2)c2cc(OCC(F)(F)F)ccc2c1=O [Compound 360]
safe for plant growth: safety for plant growth (discoloration, necrosis, wilt, malformation) [5]
≥ 90%: inhibition at 5 ppm [1] | inhibition at 5 ppm [2] | inhibition at 5 ppm [3] | pest or weed control at 10 ppm [4] | inhibition at 5 ppm [6] | inhibition at 5 ppm [7] | pest or weed control at 5 ppm [8] | pest or weed control at 10 ppm [8] | inhibition at 5 ppm [9] | inhibition at 5 ppm [10] | inhibition at 5 ppm [11] | pest or weed control at 5 ppm [12] | pest or weed control at 10 ppm [12] | pest or weed control at 5 ppm [13] | pest or weed control at 10 ppm [13] | pest or weed control at 10 ppm [14] | inhibition at 5 ppm [15] | pest or weed control at 10 ppm [16]
≥ 80%: inhibition at 1 ppm [1] | inhibition at 1 ppm [2] | inhibition at 1 ppm [3] | pest or weed control at 5 ppm [4] | inhibition at 1 ppm [6] | inhibition at 1 ppm [7] | inhibition at 1 ppm [9] | inhibition at 1 ppm [10] | inhibition at 1 ppm [11] | pest or weed control at 5 ppm [14] | inhibition at 1 ppm [15] | pest or weed control at 5 ppm [16]

CSc1cc2c(cc1F)c(=O)c(C(=O)OCCO)cn2C1CC1 [Compound 371]
≥ 90%: inhibition at 1 ppm [1] | inhibition at 5 ppm [1] | inhibition at 1 ppm [2] | inhibition at 5 ppm [2] | inhibition at 1 ppm [3] | inhibition at 5 ppm [3] | pest or weed control at 5 ppm [4] | pest or weed control at 10 ppm [4] | inhibition at 1 ppm [6] | inhibition at 5 ppm [6] | inhibition at 1 ppm [7] | inhibition at 5 ppm [7] | pest or weed control at 5 ppm [8] | pest or weed control at 10 ppm [8] | inhibition at 1 ppm [9] | inhibition at 5 ppm [9] | inhibition at 1 ppm [10] | inhibition at 5 ppm [10] | inhibition at 1 ppm [11] | inhibition at 5 ppm [11] | pest or weed control at 5 ppm [12] | pest or weed control at 10 ppm [12] | pest or weed control at 5 ppm [13] | pest or weed control at 10 ppm [13] | pest or weed control at 5 ppm [14] | pest or weed control at 10 ppm [14] | inhibition at 1 ppm [15] | inhibition at 5 ppm [15] | pest or weed control at 5 ppm [16] | pest or weed control at 10 ppm [16]
safe for plant growth: safety for plant growth (discoloration, necrosis, wilt, malformation) [5]

COCCOC(=O)c1cn(C2CC2)c2cc(SC)c(F)cc2c1=O [Compound 381, 2-methoxyethyl 1-cyclopropyl-6-fluoro-7-methylthio-4-oxo-1,4-dihydroquinoline-3-carboxylate]
≥ 90%: inhibition at 1 ppm [1] | inhibition at 5 ppm [1] | inhibition at 1 ppm [2] | inhibition at 5 ppm [2] | inhibition at 1 ppm [3] | inhibition at 5 ppm [3] | pest or weed control at 5 ppm [4] | pest or weed control at 10 ppm [4] | inhibition at 1 ppm [6] | inhibition at 5 ppm [6] | inhibition at 1 ppm [7] | inhibition at 5 ppm [7] | pest or weed control at 5 ppm [8] | pest or weed control at 10 ppm [8] | inhibition at 1 ppm [9] | inhibition at 5 ppm [9] | inhibition at 1 ppm [10] | inhibition at 5 ppm [10] | inhibition at 1 ppm [11] | inhibition at 5 ppm [11] | pest or weed control at 5 ppm [12] | pest or weed control at 10 ppm [12] | pest or weed control at 5 ppm [13] | pest or weed control at 10 ppm [13] | pest or weed control at 5 ppm [14] | pest or weed control at 10 ppm [14] | inhibition at 1 ppm [15] | inhibition at 5 ppm [15] | pest or weed control at 5 ppm [16] | pest or weed control at 10 ppm [16]
safe for plant growth: safety for plant growth (discoloration, necrosis, wilt, malformation) [5]

CCOCCOC(=O)c1cn(C2CC2)c2cc(SCC)c(F)cc2c1=O [Compound 397]
≥ 80%: inhibition at 1 ppm [9] | inhibition at 1 ppm [10] | pest or weed control at 5 ppm [16]
≥ 90%: inhibition at 1 ppm [1] | inhibition at 5 ppm [1] | inhibition at 1 ppm [2] | inhibition at 5 ppm [2] | inhibition at 1 ppm [3] | inhibition at 5 ppm [3] | pest or weed control at 5 ppm [4] | pest or weed control at 10 ppm [4] | inhibition at 1 ppm [6] | inhibition at 5 ppm [6] | inhibition at 1 ppm [7] | inhibition at 5 ppm [7] | pest or weed control at 5 ppm [8] | pest or weed control at 10 ppm [8] | inhibition at 5 ppm [9] | inhibition at 5 ppm [10] | inhibition at 1 ppm [11] | inhibition at 5 ppm [11] | pest or weed control at 5 ppm [12] | pest or weed control at 10 ppm [12] | pest or weed control at 5 ppm [13] | pest or weed control at 10 ppm [13] | pest or weed control at 5 ppm [14] | pest or weed control at 10 ppm [14] | inhibition at 1 ppm [15] | inhibition at 5 ppm [15] | pest or weed control at 10 ppm [16]
safe for plant growth: safety for plant growth (discoloration, necrosis, wilt, malformation) [5]
